Reference: US12653191B2, “Active compound combinations” (Bayer Aktiengesellschaft, priority 2020, dated 2026)
Read-outs that look alike come from different tables or passages of the source.

What was measured:
Cercospora beticola [1] = experiment: in vitro-Test with fungal microorganisms, Method B (tables C11-C20); format: cell-based; conditions: Cercospora beticola, read-out: Efficacy %
Procedure, shortened: (§1)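 Cpd in MeOH + alkylaryl-polyglycol-ether, solvent evaporated; liquid medium + fungal spores/mycelium added; OD600 read; 3–7 d, 20° C., 85% RH; growth inhibition by photometry, % efficacy vs untreated ctrl.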

Colletotrichum coccodes = experiment: in vitro-Test with fungal microorganisms, Method B (tables J1-J11); format: cell-based; conditions: Colletotrichum coccodes, read-out: Efficacy %
Procedure, shortened: as §1

Cordana musae [2] = experiment: in vitro-Test with fungal microorganisms, Method B (tables E9-E16); format: cell-based
Procedure, shortened: as §1

Botrytis cinerea [3] = experiment: in vitro-Test with fungal microorganisms, Method B (tables B15-B18); format: cell-based; conditions: Botrytis cinerea, alone, read-out: Efficacy %
Procedure, shortened: as §1

Cercospora beticola [4] = experiment: in vitro-Test with fungal microorganisms, Method A (tables C1-C10); format: cell-based; conditions: Cercospora beticola, read-out: Efficacy %
Procedure, shortened: (§2)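 First, compound in methanol with alkylaryl-polyglycol-ether was dried down in the plate. Next, spore or mycelium suspension in potato dextrose broth was added and extinction read at 620 nm. After 3-5 days at 20° C, 85% RH, reading was repeated and efficacy scored against untreated wells.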

Botrytis cinerea [5] = experiment: in vitro-Test with fungal microorganisms, Method A (tables B1-B14); format: cell-based; conditions: Botrytis cinerea
Procedure, shortened: as §2

Parastagonospora nodorum [6] = experiment: in vitro-Test with fungal microorganisms, Method A (tables H1-H4); format: cell-based
Experimental: Example: In Vitro-Test with Fungal Microorganisms
Wells of 96-well microtiter plates are filled with 10 μl of a preparation of test compound or compound combination in methanol+emulsifier alkylaryl-polyglycol-ether. Thereafter, the solvent is evaporated in a hood. At the next step, 100 μl of liquid potato dextrose medium is given into each well, that has been amended with an appropriate concentration of spores or mycelium suspension of the test fungus.
With the aid of a photometer, the extinction in all wells is measured at the wavelength of 620 nm.
The microtiter plates are incubated at 20° C. and 85% relative humidity. The inhibition of growth is determined again photometrically 3-5 days after the application. Efficacy is calculated in relation to the untreated control, 0% efficacy means fungal growth as high as in untreated control while 100% efficacy means no fungal growth is measured.
The data in tables A1 to A12, B1 to B14, C1 to C10, D1 to D8, E1 to E8, F1 to F11, G1 to G4, H1 to H4 and I1 to I5 were collected according to Method A. The data in tables A13 to A22, B15 to B18, C11 to C20, E9 to E16, F12 to F15, G5 to G15, H5 to H8, I6 to I11 and J1 to J11 were collected according to Method B.

Fusarium culmorum [7] = experiment: in vitro-Test with fungal microorganisms, Method B (tables G5-G15); format: cell-based; conditions: Fusarium culmorum, read-out: Efficacy
Procedure, shortened: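 Efficacy scale: 0% means growth equal to the untreated control, 100% means none detected. Compounds are dried from methanol with emulsifier before adding inoculated growth medium; incubation at 20° C., 85% relative humidity for 3 to 7 days precedes photometric inhibition readout.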

[8] = tested on: Ustilago segetum var. avenae; experiment: in vitro-Test with fungal microorganisms, Method B (tables I6-I11); format: cell-based; conditions: read-out: Efficacy %
Procedure, shortened: as §1

Alternaria alternata = experiment: in vitro-Test with fungal microorganisms, Method B (tables A13-A22); format: cell-based; conditions: Alternaria alternata, read-out: Efficacy
Procedure, shortened: as §1

Alternaria alternate = experiment: in vitro-Test with fungal microorganisms, Method A (tables A1-A12); format: cell-based, Alternaria alternata; conditions: Alternaria, applied alone, read-out: Efficacy %
Procedure, shortened: as §2

Parastagonospora nodorum [9] = experiment: in vitro-Test with fungal microorganisms, Method B (tables H5-H8); format: cell-based; conditions: Parastagonospora nodorum, read-out: Efficacy
Procedure, shortened: as §1

[10] = tested on: Colletotrichum lindemuthianum; experiment: in vitro-Test with fungal microorganisms, Method A (tables D1-D8); format: cell-based; conditions: Colletotrichum lindemuthianum, read-out: Efficacy %
Procedure, shortened: as §2

Cordana musae [11] = experiment: in vitro-Test with fungal microorganisms, Method A (tables E1-E8); format: cell-based; conditions: Neocordana musae, single substance, read-out: Efficacy %
Procedure, shortened: as §2

[12] = tested on: Ustilago segetum var. avenae; experiment: in vitro-Test with fungal microorganisms, Method A (tables I1-I5); format: cell-based; conditions: alone, read-out: Efficacy %
Procedure, shortened: as §2

Diaporthe citri = experiment: in vitro-Test with fungal microorganisms, Method A (tables F1-F11); format: cell-based; conditions: Diaporthe citri, applied alone, read-out: Efficacy
Procedure, shortened: as §2

Fusarium culmorum [13] = experiment: in vitro-Test with fungal microorganisms, Method A (tables G1-G4); format: cell-based; conditions: Fusarium culmorum, read-out: Efficacy
Procedure, shortened: as §2

## CC1COC(Cn2cncn2)(c2ccc(Oc3ccc(Cl)cc3)cc2Cl)O1 (stereo not shown) [(1.002) difenoconazole, difenoconazole]
Cercospora beticola [1]
  inhibition of growth at 0.008 ppm: 5%
  inhibition of growth at 0.04 ppm: 60%
  inhibition of growth at 0.2 ppm: 98%
Cercospora beticola [1]; 1 ppm
  inhibition of growth at 1 ppm: 99%
Cercospora beticola [1]; single compound
  inhibition of growth at 0.008 ppm: 16%
  inhibition of growth at 0.04 ppm: 51%
  inhibition of growth at 0.2 ppm: 100%
Colletotrichum coccodes; 0.2 ppm
  inhibition of growth at 0.2 ppm: 0.31%
Colletotrichum coccodes; single active compound at 1 ppm
  inhibition of growth at 1 ppm: 24%
Cordana musae [2]; Neocordana musae, single active, 0.04 ppm, read-out: Efficacy
  inhibition of growth at 0.04 ppm: 0%
Cordana musae [2]; Neocordana musae, single active, 0.2 ppm, read-out: Efficacy
  inhibition of growth at 0.2 ppm: 16%
Cordana musae [2]; Neocordana musae, single active, 1 ppm, read-out: Efficacy
  inhibition of growth at 1 ppm: 20%
Cordana musae [2]; single substance, 0.04 ppm
  Efficacy %: 0%
Botrytis cinerea [3]; 1 ppm
  inhibition of growth at 1 ppm: 13%
Cercospora beticola [4]; 0.008 ppm alone
  inhibition of growth at 0.008 ppm: 5%
Cercospora beticola [4]; 0.008 ppm
  inhibition of growth at 0.008 ppm: 15%
Cercospora beticola [4]; 0.04 ppm alone
  inhibition of growth at 0.04 ppm: 20%
Cercospora beticola [4]; 0.04 ppm
  inhibition of growth at 0.04 ppm: 40%
Cercospora beticola [4]; 0.2 ppm alone
  inhibition of growth at 0.2 ppm: 79%
Cercospora beticola [4]; 0.2 ppm
  inhibition of growth at 0.2 ppm: 89%
Cercospora beticola [4]; 1.0 ppm alone
  inhibition of growth at 1 ppm: 99%
Cercospora beticola [4]; 1.0 ppm
  inhibition of growth at 1 ppm: 99%
Botrytis cinerea [5]; alone, 0.008 ppm, read-out: Efficacy %
  inhibition of growth at 0.008 ppm: 8%
Botrytis cinerea [5]; alone, 0.04 ppm, read-out: Efficacy %
  inhibition of growth at 0.04 ppm: 0%
Botrytis cinerea [5]; alone, 0.2 ppm, read-out: Efficacy %
  inhibition of growth at 0.2 ppm: 0%
Botrytis cinerea [5]; alone, 1.0 ppm, read-out: Efficacy %
  inhibition of growth at 1 ppm: 0%
Parastagonospora nodorum [6]; 0.04 ppm
  Efficacy: 22%
Parastagonospora nodorum [6]; 0.2 ppm
  Efficacy: 88%
Fusarium culmorum [7]; 0.04 ppm, alone
  inhibition of growth at 0.04 ppm: 26%
[8]; 0.008 ppm
  inhibition of growth at 0.008 ppm: 2%
[8]; 0.04 ppm
  inhibition of growth at 0.04 ppm: 40%
[8]; 0.2 ppm
  inhibition of growth at 0.2 ppm: 100%
Alternaria alternata; single compound, 0.04 ppm
  inhibition of growth at 0.04 ppm: 21%
Alternaria alternata; single compound, 0.2 ppm
  inhibition of growth at 0.2 ppm: 53%
Alternaria alternata; single compound, 1 ppm
  inhibition of growth at 1 ppm: 94%
Alternaria alternate; 0.04 ppm
  inhibition of growth at 0.04 ppm: 10%
Alternaria alternate; 0.2 ppm
  inhibition of growth at 0.2 ppm: 28%
Alternaria alternate; 1.0 ppm
  inhibition of growth at 1 ppm: 96%
Parastagonospora nodorum [9]; 0.008 ppm
  inhibition of growth at 0.008 ppm: 32%
Parastagonospora nodorum [9]; 0.04 ppm
  inhibition of growth at 0.04 ppm: 100%
Parastagonospora nodorum [9]; 0.2 ppm
  inhibition of growth at 0.2 ppm: 100%
[10]; mixing partner alone, 0.008 ppm
  inhibition of growth at 0.008 ppm: 0%
[10]; mixing partner alone, 0.04 ppm
  inhibition of growth at 0.04 ppm: 2%
[10]; mixing partner alone, 0.2 ppm
  inhibition of growth at 0.2 ppm: 0%
[10]; mixing partner alone, 1.0 ppm
  inhibition of growth at 1 ppm: 16%
Cordana musae [11]; 0.2 ppm
  inhibition of growth at 0.2 ppm: 0%
Cordana musae [11]; 1.0 ppm
  inhibition of growth at 1 ppm: 14%
[12]; 0.008 ppm
  inhibition of growth at 0.008 ppm: 8%
[12]; 0.04 ppm
  inhibition of growth at 0.04 ppm: 14%
[12]; 1.0 ppm
  inhibition of growth at 1 ppm: 100%
Diaporthe citri; 0.04 ppm
  inhibition of growth at 0.04 ppm: 0.04%

## O=C(NCCc1ncc(C(F)(F)F)cc1Cl)c1ccccc1C(F)(F)F [(2.005) fluopyram, Fluopyram]
Cercospora beticola [1]
  inhibition of growth at 0.8 ppm: 31%
  inhibition of growth at 4 ppm: 0%
  inhibition of growth at 20 ppm: 56%
Cercospora beticola [1]; single compound
  inhibition of growth at 0.8 ppm: 11%
  inhibition of growth at 4 ppm: 0%
  inhibition of growth at 20 ppm: 7%
Colletotrichum coccodes; 4 ppm
  inhibition of growth at 4 ppm: 14%
Colletotrichum coccodes; single active compound at 0.8 ppm
  inhibition of growth at 0.8 ppm: 0%
Colletotrichum coccodes; single active compound at 4 ppm
  inhibition of growth at 4 ppm: 0%
Cordana musae [2]; Neocordana musae, single active, 4 ppm, read-out: Efficacy
  inhibition of growth at 4 ppm: 0%
Fusarium culmorum [13]; 0.8 ppm, alone
  inhibition of growth at 0.8 ppm: 0%
Fusarium culmorum [13]; 4.0 ppm, alone
  inhibition of growth at 4 ppm: 0%
Fusarium culmorum [13]; 20.0 ppm, alone
  inhibition of growth at 20 ppm: 16%
Fusarium culmorum [13]; Table G1, 0.8 ppm alone
  inhibition of growth at 0.8 ppm: 0%
Fusarium culmorum [13]; Table G1, 4.0 ppm alone
  inhibition of growth at 4 ppm: 0%
Fusarium culmorum [13]; Table G1, 20.0 ppm alone
  inhibition of growth at 20 ppm: 21%
Botrytis cinerea [3]; 0.8 ppm
  inhibition of growth at 0.8 ppm: 51%
Botrytis cinerea [3]; 4 ppm
  inhibition of growth at 4 ppm: 79%
Botrytis cinerea [3]; 20 ppm
  inhibition of growth at 20 ppm: 100%
Cercospora beticola [4]; 0.8 ppm alone
  inhibition of growth at 0.8 ppm: 0%
Cercospora beticola [4]; 4.0 ppm alone
  inhibition of growth at 4 ppm: 27%
Cercospora beticola [4]; 20.0 ppm alone
  inhibition of growth at 20 ppm: 39%
Botrytis cinerea [5]; read-out: Efficacy
  inhibition of growth at 0.8 ppm: 69%
  inhibition of growth at 4 ppm: 72%
  inhibition of growth at 20 ppm: 100%
Botrytis cinerea [5]; alone, read-out: Efficacy %
  inhibition of growth at 0.8 ppm: 65%
  inhibition of growth at 4 ppm: 75%
  inhibition of growth at 20 ppm: 75%
Parastagonospora nodorum [6]; 0.8 ppm
  Efficacy: 37%
Parastagonospora nodorum [6]; 4.0 ppm
  Efficacy: 44%
Parastagonospora nodorum [6]; 20.0 ppm
  Efficacy: 70%
Fusarium culmorum [7]; 4 ppm, alone
  inhibition of growth at 4 ppm: 21%
Fusarium culmorum [7]; single active compound, 0.8 ppm
  inhibition of growth at 0.8 ppm: 20%
Fusarium culmorum [7]; single active compound, 20 ppm
  inhibition of growth at 20 ppm: 37%
[8]; 20 ppm
  inhibition of growth at 20 ppm: 20%
Alternaria alternata
  inhibition of growth at 0.8 ppm: 61%
  inhibition of growth at 4 ppm: 81%
  inhibition of growth at 20 ppm: 88%
Alternaria alternata; single compound
  inhibition of growth at 0.8 ppm: 79%
  inhibition of growth at 4 ppm: 81%
  inhibition of growth at 20 ppm: 91%
Alternaria alternate; 4 ppm
  inhibition of growth at 4 ppm: 63%
Alternaria alternate; 20 ppm
  inhibition of growth at 20 ppm: 82%
Parastagonospora nodorum [9]; 4 ppm
  inhibition of growth at 4 ppm: 35%
Parastagonospora nodorum [9]; 20 ppm
  inhibition of growth at 20 ppm: 59%
[10]; single active at 20.0 ppm
  inhibition of growth at 20 ppm: 23%
Cordana musae [11]; 0.8 ppm
  inhibition of growth at 0.8 ppm: 0%
Cordana musae [11]; 4.0 ppm
  inhibition of growth at 4 ppm: 1%
[12]; 0.8 ppm
  inhibition of growth at 0.8 ppm: 9%
[12]; 4.0 ppm
  inhibition of growth at 4 ppm: 10%
[12]; 20.0 ppm
  inhibition of growth at 20 ppm: 10%
Diaporthe citri; 4.0 ppm
  inhibition of growth at 4 ppm: 15%
